In PMC11012124, “Synthesis of Novel Triazine-Based Chalcones and 8,9-dihydro-7H-pyrimido[4,5-b][1,4]diazepines as Potential Leads in the Search of Anticancer, Antibacterial and Antifungal Agents” (International Journal of Molecular Sciences, 2024):

Experiments:
Assay in all cases: cells
HOP-62 = conditions: Homo sapiens, HOP-62, 48 h; for CC50: read-out: LC50
UO-31 = conditions: Homo sapiens, UO-31, 48 h; for CC50: read-out: LC50
SK-MEL-2 = conditions: Homo sapiens, SK-MEL-2, 48 h; for CC50: read-out: LC50
CAKI-1 = conditions: Homo sapiens, CAKI-1, 48 h; for CC50: read-out: LC50
SF-295 = conditions: Homo sapiens, SF-295, 48 h; for CC50: read-out: LC50
MDA-MB-468 = conditions: Homo sapiens, MDA-MB-468, 48 h; for CC50: read-out: LC50
SNB-19 = conditions: Homo sapiens, SNB-19, 48 h; for CC50: read-out: LC50
786-0 = conditions: Homo sapiens, 786-0, 48 h; for CC50: read-out: LC50
KM12 = conditions: Homo sapiens, KM12, 48 h; for CC50: read-out: LC50
OVCAR-3 = conditions: Homo sapiens, OVCAR-3, 48 h; for CC50: read-out: LC50
COLO 205 = conditions: Homo sapiens, COLO 205, 48 h; for CC50: read-out: LC50
SK-MEL-5 = conditions: Homo sapiens, SK-MEL-5, 48 h; for CC50: read-out: LC50
NCI-H522 = conditions: Homo sapiens, NCI-H522, 48 h; for CC50: read-out: LC50
SF-268 = conditions: Homo sapiens, SF-268, 48 h; for CC50: read-out: LC50
U251 = conditions: Homo sapiens, U-251, 48 h; for GI50: U251, 48 h; for CC50: read-out: LC50
NCI-H322M = conditions: Homo sapiens, 48 h; for CC50: read-out: LC50
DU-145 = conditions: Homo sapiens, DU-145, 48 h; for CC50: read-out: LC50
OVCAR-4 = conditions: Homo sapiens, OVCAR-4, 48 h; for CC50: read-out: LC50
SR = conditions: Homo sapiens, 48 h; for CC50: read-out: LC50
T-47D = conditions: Homo sapiens, T47D, 48 h; for CC50: read-out: LC50
UACC-62 = conditions: Homo sapiens, UACC-62, 48 h; for CC50: read-out: LC50
HCT-15 = conditions: Homo sapiens, HCT-15, 48 h; for CC50: read-out: LC50
HT29 = conditions: Homo sapiens, HT-29, 48 h; for CC50: read-out: LC50
NCI/ADR-RES = conditions: Homo sapiens, 48 h; for CC50: read-out: LC50

CN(C)c1nc(NCCNS(=O)(=O)c2ccc(C(=O)/C=C/c3ccc(F)cc3)cc2)nc(N2CCOCC2)n1 [23f]
GI50 (HOP-62): 16.1 µM | CC50 (HOP-62): 61.8 µM | GI50 (UO-31): 11 µM | CC50 (UO-31): 47.9 µM | GI50 (SK-MEL-2): 13.7 µM | CC50 (SK-MEL-2): 52.7 µM | GI50 (CAKI-1): 9.5 µM | CC50 (CAKI-1): 48.6 µM | GI50 (SF-295): 11.3 µM | CC50 (SF-295): 50.1 µM | GI50 (MDA-MB-468): 8.08 µM | CC50 (MDA-MB-468): 54.7 µM | GI50 (SNB-19): 13.4 µM | CC50 (SNB-19): 52.1 µM | GI50 (786-0): 14.5 µM | CC50 (786-0): 57 µM | GI50 (KM12): 13.4 µM | CC50 (KM12): 70.3 µM | GI50 (OVCAR-3): 14.6 µM | CC50 (OVCAR-3): 55.7 µM | GI50 (COLO 205): 14.6 µM | CC50 (COLO 205): 62.4 µM | GI50 (SK-MEL-5): 15.7 µM | CC50 (SK-MEL-5): 54.4 µM | GI50 (NCI-H522): 13.3 µM | CC50 (NCI-H522): 53.2 µM | GI50 (SF-268): 15 µM | CC50 (SF-268): 94 µM | GI50 (U251): 4.74 µM | CC50 (U251): 41.5 µM | GI50 (NCI-H322M): 13.2 µM | CC50 (NCI-H322M): 50.9 µM | GI50 (DU-145): 14.4 µM | CC50 (DU-145): 53.8 µM | GI50 (OVCAR-4): 11.9 µM | CC50 (OVCAR-4): 51.1 µM | GI50 (SR): 3.45 µM | CC50 (SR): > 100 µM | GI50 (T-47D): 11.9 µM | CC50 (T-47D): 94.2 µM | GI50 (UACC-62): 10.8 µM | CC50 (UACC-62): 49.1 µM | GI50 (HCT-15): 2.15 µM | CC50 (HCT-15): 13.7 µM | GI50 (HT29): 2.84 µM | CC50 (HT29): 32.3 µM

COc1cc(/C=C/C(=O)c2ccccc2)ccc1Oc1nc(Nc2ccc(F)cc2)nc(N(C)C)n1 [21a]
GI50 (HOP-62): 26.6 µM | CC50 (HOP-62): > 100 µM | GI50 (UO-31): 4.4 µM | CC50 (UO-31): > 100 µM | GI50 (SK-MEL-2): 4.68 µM | CC50 (SK-MEL-2): 63.1 µM | GI50 (CAKI-1): 5.72 µM | CC50 (CAKI-1): > 100 µM | GI50 (SF-295): 6.89 µM | CC50 (SF-295): > 100 µM | GI50 (MDA-MB-468): 3.21 µM | CC50 (MDA-MB-468): > 100 µM | GI50 (SNB-19): 10.2 µM | CC50 (SNB-19): 74.9 µM | GI50 (786-0): 20.5 µM | CC50 (786-0): > 100 µM | GI50 (KM12): 14.9 µM | CC50 (KM12): > 100 µM | GI50 (OVCAR-3): 11.8 µM | CC50 (OVCAR-3): > 100 µM | GI50 (COLO 205): 15.1 µM | CC50 (COLO 205): > 100 µM | GI50 (SK-MEL-5): 6.21 µM | CC50 (SK-MEL-5): > 100 µM | GI50 (NCI-H522): 5.15 µM | CC50 (NCI-H522): > 100 µM | GI50 (SF-268): 12.2 µM | CC50 (SF-268): > 100 µM | GI50 (U251): 2.84 µM | CC50 (U251): 60.6 µM | GI50 (NCI-H322M): 28.7 µM | CC50 (NCI-H322M): > 100 µM | GI50 (DU-145): 27.3 µM | CC50 (DU-145): > 100 µM | GI50 (OVCAR-4): 5.85 µM | CC50 (OVCAR-4): > 100 µM | GI50 (SR): 2.9 µM | CC50 (SR): > 100 µM | GI50 (T-47D): 3.36 µM | CC50 (T-47D): > 100 µM | GI50 (UACC-62): 4.99 µM | CC50 (UACC-62): 79.4 µM | GI50 (NCI/ADR-RES): 7.04 µM | CC50 (NCI/ADR-RES): 58.5 µM | GI50 (HCT-15): 3.31 µM | CC50 (HCT-15): 36.2 µM | GI50 (HT29): 4.36 µM | CC50 (HT29): 59.7 µM

Nc1nc(N)c2c(n1)NC(c1ccc(Cl)cc1)CC(c1ccc(Nc3nc(NCCO)nc(Nc4ccc(Cl)cc4)n3)cc1)=N2 (centres unmarked) [33e]
GI50 (HOP-62): 2.83 µM | CC50 (HOP-62): 34.5 µM | GI50 (UO-31): 3.1 µM | CC50 (UO-31): > 100 µM | GI50 (SK-MEL-2): 1.45 µM | CC50 (SK-MEL-2): 5.53 µM | GI50 (CAKI-1): 5.36 µM | CC50 (CAKI-1): > 100 µM | GI50 (SF-295): 1.73 µM | CC50 (SF-295): 7.76 µM | GI50 (MDA-MB-468): 1.39 µM | CC50 (MDA-MB-468): 5.6 µM | GI50 (SNB-19): 1.99 µM | CC50 (SNB-19): 21.4 µM | GI50 (786-0): 1.55 µM | CC50 (786-0): 5.96 µM | GI50 (KM12): 3.18 µM | CC50 (KM12): > 100 µM | GI50 (COLO 205): 1.51 µM | CC50 (COLO 205): 8.55 µM | GI50 (SK-MEL-5): 1.48 µM | CC50 (SK-MEL-5): 5.3 µM | GI50 (NCI-H522): 1.56 µM | CC50 (NCI-H522): 6.41 µM | GI50 (SF-268): 4.14 µM | CC50 (SF-268): > 100 µM | GI50 (U251): 1.47 µM | CC50 (U251): 5.81 µM | GI50 (NCI-H322M): 2.02 µM | CC50 (NCI-H322M): 16.9 µM | GI50 (DU-145): 2.22 µM | CC50 (DU-145): 22.8 µM | GI50 (OVCAR-4): 1.96 µM | CC50 (OVCAR-4): 32.7 µM | GI50 (SR): 0.91 µM | CC50 (SR): > 100 µM | GI50 (T-47D): 1.71 µM | CC50 (T-47D): 54.6 µM | GI50 (UACC-62): 2.03 µM | CC50 (UACC-62): 9.06 µM | GI50 (NCI/ADR-RES): 4.24 µM | CC50 (NCI/ADR-RES): > 100 µM | GI50 (HCT-15): 1.29 µM | CC50 (HCT-15): 6.09 µM | GI50 (HT29): 1.7 µM | CC50 (HT29): 7.96 µM
